Measured values from patent publication US9095565B2, “Methods for treating blood disorders” (Phoenicia Biosciences, Inc., priority 2006, dated 2015).

Assays:
[1] = tested on: Erythroid colonies (BFU-E); experiment: Experiment 2: erythroid colonies (BFU-E) cultured from patients with beta thalassemia; format: cell-based, human; details: optimal panel of growth factors
Experimental: (§1) Erythroid burst-forming units (BFU-E) (erythroid progenitors) and colony-forming units granulocyte-macrophage (CFU-GM) (myeloid colonies) were cultured in semi-solid or in two-phase suspension media, with or without hematopoietic growth factors at high levels (e.g., erythropoietin at 3 U/ml) or reduced levels (BFU-E cell proliferation was evaluated by enumeration in colonies developing in the presence of reduced amounts of erythropoietin (0.5 U/ml) rather than 3 U (or 3000 mU)/ml, which is standard for these experimental systems), from cord blood or the peripheral blood of several types of humans. Experiments were carried out on samples derived from 1) β-thalassemia patients who expressed variable levels of fetal globin at baseline (and in untreated control cultures) and represent a variety of potential individual responses, 2) from normal umbilical cord blood samples, which express 40-50% fetal globin at baseline (and in untreated control cultures), 3) from CD34+ cells isolated from normal adult peripheral blood, which expressed low levels of fetal globin in untreated control cultures and at baseline; and 4) from peripheral blood of patients with sickle cell disease who were receiving treatment with hydroxyurea. These biological samples provide a range of potential difficulty in stimulating fetal globin expression in human patients.
Erythroid colonies were cultured from patients with beta thalassemia, either without any test compounds (Control), only an optimal panel of hematopoietic growth factors, or with one of the test compounds M, P, T, 2-methyl-1-benzofuran-4-carboxylic acid, V, W, X, Y, AK, AC, or AI. […] Colony numbers were increased above the control cultures (% BFU-E/Control) by anywhere from 25% to 230%. Each of the listed test compounds was tested in at least 5 different patients' blood and the differences were statistically significant.

γ-globin mRNA = γ-globin mRNA by RT-PCR in erythroid colonies cultured from cord blood; format: cell-based, human; details: for Concentration required: increase in fetal globin mRNA, erythroid colonies from cord blood; for No. of Positive responses: positive cultures/cultures tested; for fetal globin induction: 3 cultures
Experimental: γ-globin mRNA was analyzed in control and treated erythroid colonies cultured from cord blood, by RT-PCR.

[2] = tested on: cells expressing fetal globin (F-cells); experiment: Experiment 1: proportion of F-cells in hematopoietic colonies by FACScan; format: cell-based, human; details: same low concentrations as for fetal globin mRNA induction
Experimental: as §1
Hematopoietic colonies were enumerated with or without (+/−) the test compounds, and compared to colonies which developed in the presence of hematopoietic growth factors alone from the same subject (untreated control colonies), and proportions of cells expressing fetal globin (F-cells) were analyzed by FACScan analysis.

BFU-E = BFU-E cultured from cord blood; format: cell-based, human
Experimental: as §1
In a related study, BFU-E cultured from cord blood, was tested with or without compound M, P, R, T, W, Y, Z, AI, F, or 3-(5-chlorothien-3-yl)acrylic acid.

γ globin promoter = experiment: β/γ-globin promoter driven reporter gene assay; format: cell-based; details: Table 2
fetal globin mRNA = experiment: Fetal globin induction in phlebotomized anemic baboons; format: in vivo, baboon; details: Baboon 5002, 50 mg/kg
Experimental: Juvenile baboons were catheterized with venous and arterial catheters, and were phlebotomized a set amount of blood daily to maintain anemia with a hemoglobin level of 7.0-7.5 g/dl, from a baseline normal hemoglobin level of (12-13 g/dl). Normal saline was infused to replace the amount of blood withdrawn. This degree of phlebotomy exchanges the blood volume every 10-20 days.
Fetal globin mRNA was analyzed at baseline anemia before and following administration of test compounds. Globin chain protein synthesis confirmed the mRNA findings.
Following establishment of the stable level of anemia, a test compound was administered once/day, either intravenously or orally, and blood was withdrawn through the arterial catheter for analysis of globin mRNA or for analysis of the test compound in the plasma by HPLC-MS. Pharmacokinetic profiles were established from the plasma levels and oral bioavailability (comparing area under the curve between IV and oral plasma levels) was determined for the test compounds.
In anemic Baboon 5002, baseline fetal globin mRNA, assayed by RNAse protection, was 26% of non-alpha globin. With treatment with compound Y at 5 mg/kg/dose, fetal globin mRNA increased to 48% of non-alpha globin, an 85% increase over the baseline level. Treatment with compound AK at 50 mg/kg induced a 51% fetal globin mRNA increase, a 96% increase over the baseline level. […] The human equivalent dose is 20% of these doses, or 1 mg/kg, 10 mg/kg, or 8 mg/kg respectively. Thus, these 3 compounds are highly suitable for pharmaceutical compositions at doses that human patients can readily tolerate.

γ-globin gene = experiment: Related study: relative in vitro γ-globin gene induction; format: cell-based
Experimental: (§2) In a related study, the relative luciferase reporter gene induction, γ-globin gene induction, and F cell production was tested for several of the candidate compounds. The relative in vitro γ-globin gene reporter stimulation for the tested compounds was as follows: compound P>M>W=R=Y. The relative in vitro γ-globin gene induction for the tested compounds was as follows: P>R=M>Y>W>. The relative in vitro F-cell production was as follows: W>Y>R>M>P. The relative potency for F-cell production was as follows: R>M>Y>P>W.

γ-globin gene reporter = experiment: Related study: relative luciferase reporter gene induction; format: cell-based
Experimental: as §2

F-cell = experiment: Related study: in vitro F cell production; format: cell-based
Experimental: as §2

Erythroid colonies = experiment: Example 7: erythroid colonies cultured with low Erythropoietin (0.5 U/ml) and compound Y enantiomers; format: cell-based, human
Experimental: The proliferative activity of compound Y—S enantiomer was tested in vitro in erythroid colonies cultured from peripheral blood of 3 sources of individuals: sickle cell anemia patients who were taking Hydroxyurea and have suppression of their endogenous erythropoiesis, a normal adult subject, and two cord blood samples. The erythroid cultures were established with low concentrations of Erythropoietin (0.5 U/ml) alone and with one or the other enantiomer of compound Y or the racemic mixture, or with high concentrations of EPO (3 Units/ml, =3000 mU/ml, 100-fold the normal physiologic concentration).

Molecule: Cc1cc2c(C(=O)O)cccc2o1 [2-methyl-1-benzofuran-4-carboxylic acid]
- number of erythroid colonies compared to matched control cultures [1]: increased the number of colonies
- Concentration required (γ-globin mRNA): 5 µM
- No. of Positive responses (γ-globin mRNA): 6/6
- proportion of F-cells above the percentage in untreated controls [2]: significant increases

Molecule: O=C(O)C=Cc1csc(Cl)c1 [3-(5-chlorothien-3-yl)acrylic acid]
- Concentration required (γ-globin mRNA): 30 µM
- proportion of F-cells above the percentage in untreated controls [2]: significant increases
- numbers of BFU-E colonies compared to controls (BFU-E): increased numbers of colonies

Molecule: O=C(O)Cn1ccc(=O)cc1 [AA]
- % γ globin promoter induction (above untreated control) (γ globin promoter): ** (‘**’ indicates a 100%-200% increase)

Molecule: O=C(O)C1CCc2snnc2C1 (stereo not shown) [AB]
- % γ globin promoter induction (above untreated control) (γ globin promoter): ** (‘**’ indicates a 100%-200% increase)

Molecule: O=C(O)Cn1cc(Cl)c([N+](=O)[O-])n1 [AC]
- % γ globin promoter induction (above untreated control) (γ globin promoter): ** (‘**’ indicates a 100%-200% increase)
- number of erythroid colonies compared to matched control cultures [1]: increased the number of colonies

Molecule: Cn1cnnc1SCC(=O)O [AD]
- % γ globin promoter induction (above untreated control) (γ globin promoter): ** (‘**’ indicates a 100%-200% increase)

Molecule: O=C(O)CSc1nnc(S)s1 [AE]
- % γ globin promoter induction (above untreated control) (γ globin promoter): ** (‘**’ indicates a 100%-200% increase)

Molecule: O=C(CC1(C(=O)O)CCCCC1)c1cccs1 [AF]
- % γ globin promoter induction (above untreated control) (γ globin promoter): * (‘*’ indicates a 80-100% increase)

Molecule: O=C1CC(C(=O)O)Cc2ccsc21 (stereo not shown) [AG]
- % γ globin promoter induction (above untreated control) (γ globin promoter): ** (‘**’ indicates a 100%-200% increase)

Molecule: Cc1cc(SCC(=O)O)cs1 [AH]
- % γ globin promoter induction (above untreated control) (γ globin promoter): ** (‘**’ indicates a 100%-200% increase)

Molecule: O=C(O)CCC1(c2ccc(Cl)s2)CCCCC1 [AJ]
- % γ globin promoter induction (above untreated control) (γ globin promoter): ** (‘**’ indicates a 100%-200% increase)

Molecule: O=[N+]([O-])c1cc(S(=O)(=O)O)ccc1F [AK]
- % γ globin promoter induction (above untreated control) (γ globin promoter): ** (‘**’ indicates a 100%-200% increase)
- number of erythroid colonies compared to matched control cultures [1]: increased the number of colonies
- increase over the baseline level of fetal globin mRNA (fetal globin mRNA): 96%
- fetal globin mRNA (% of non-alpha globin) (fetal globin mRNA; baseline 26%): 51%

Molecule: O=C(O)/C=C/c1ccnc2ccccc12 [F]
- % γ globin promoter induction (above untreated control) (γ globin promoter): *** (‘***’ indicates an over 200% increase of γ globin promoter induction over untreated controls)
- proportion of F-cells above the percentage in untreated controls [2]: significant increases
- numbers of BFU-E colonies compared to controls (BFU-E): increased numbers of colonies

Molecule: O=C(O)CN1C(=O)S/C(=C/c2ccccc2O)C1=O [K]
- % γ globin promoter induction (above untreated control) (γ globin promoter): * (‘*’ indicates a 80-100% increase)

Molecule: O=C(O)CNc1ccc(SC(F)(F)F)cc1 [N]
- % γ globin promoter induction (above untreated control) (γ globin promoter): *** (‘***’ indicates an over 200% increase of γ globin promoter induction over untreated controls)
- proportion of F-cells above the percentage in untreated controls [2]: significant increases

Molecule: COc1cc(OC)cc(Oc2ccccc2C(=O)O)c1 [O]
- % γ globin promoter induction (above untreated control) (γ globin promoter): * (‘*’ indicates a 80-100% increase)

Molecule: COc1cc(OC)cc(SC(C(=O)O)C(C)C)c1 (stereo not shown) [Q]
- % γ globin promoter induction (above untreated control) (γ globin promoter): ** (‘**’ indicates a 100%-200% increase)

Molecule: COc1ccc(C(N)CC(=O)O)cc1OC (stereo not shown) [R]
- % γ globin promoter induction (above untreated control) (γ globin promoter): *** (‘***’ indicates an over 200% increase of γ globin promoter induction over untreated controls)
- relative in vitro γ-globin gene induction (rank order) (γ-globin gene): P>R=M>Y>W
- proportion of F-cells above the percentage in untreated controls [2]: significant increases
- relative in vitro γ-globin gene reporter stimulation (rank order) (γ-globin gene reporter): P>M>W=R=Y
- relative in vitro F-cell production (rank order) (F-cell): W>Y>R>M>P
- relative potency for F-cell production (rank order) (F-cell): R>M>Y>P>W
- numbers of BFU-E colonies compared to controls (BFU-E): increased numbers of colonies

Molecule: O=C(O)Cc1[nH]c(=O)cc(O)c1C(=O)O [S]
- % γ globin promoter induction (above untreated control) (γ globin promoter): ** (‘**’ indicates a 100%-200% increase)

Molecule: O=C1CSc2ccc(C(=O)O)cc2N1 [T]
- % γ globin promoter induction (above untreated control) (γ globin promoter): ** (‘**’ indicates a 100%-200% increase)
- number of erythroid colonies compared to matched control cultures [1]: increased the number of colonies
- proportion of F-cells above the percentage in untreated controls [2]: significant increases
- numbers of BFU-E colonies compared to controls (BFU-E): increased numbers of colonies

Molecule: COc1cccc(SCC(=O)O)c1 [V]
- % γ globin promoter induction (above untreated control) (γ globin promoter): ** (‘**’ indicates a 100%-200% increase)
- number of erythroid colonies compared to matched control cultures [1]: increased the number of colonies
- Concentration required (γ-globin mRNA): 5 µM
- No. of Positive responses (γ-globin mRNA): 6/6
- proportion of F-cells above the percentage in untreated controls [2]: significant increases

Molecule: COc1cc(OC)nc(S[C@@H](C(=O)O)C(C)C)n1 [Y + R]
- erythroid cell proliferation (Erythroid colonies): does not stimulate cell proliferation
- fetal globin induction (γ-globin mRNA): demonstrated fetal globin inducing action
- Concentration required (γ-globin mRNA): 5 µM
- No. of Positive responses (γ-globin mRNA): 2/3

Molecule: COc1cc(OC)nc(S[C@H](C(=O)O)C(C)C)n1 [Y − S]
- erythroid cell proliferation (Erythroid colonies): stimulates erythroid cell proliferation significantly
- range of more erythroid colonies than in the racemic mixture (Erythroid colonies; low EPO 0.5 U/ml): 38-50%
- mean more erythroid colonies than in the racemic mixture (Erythroid colonies; low EPO 0.5 U/ml, same concentration): 45%
- fetal globin induction (γ-globin mRNA): did not induce fetal globin in 2 of (the same) 3 cultures
- Concentration required (γ-globin mRNA): 5 µM
- No. of Positive responses (γ-globin mRNA): 1/3

Molecule: O=C(O)c1cccc(Cn2cc(Cl)cn2)c1 [Z]
- % γ globin promoter induction (above untreated control) (γ globin promoter): ** (‘**’ indicates a 100%-200% increase)
- proportion of F-cells above the percentage in untreated controls [2]: significant increases
- numbers of BFU-E colonies compared to controls (BFU-E): increased numbers of colonies

Molecule: EPO: Erythropoietin, high concentration 3 Units/ml in erythroid cultures
- mean more colonies than cultures with racemic mix or R enantiomer in low EPO (Erythroid colonies; high EPO 3 Units/ml): 35%
- range of more colonies than cultures with racemic mix or R enantiomer in low EPO (Erythroid colonies; high EPO 3 Units/ml): 25-45%
